What was measured:
[1] = target: T1, human OX2 receptors (Homo sapiens, UniProt O43614); test: antagonistic activity against human OX2 receptor, [Ca2+]i fluorimetry in transfected HEK-293 cells; format: cell-based; settings: read-out: PKb OX2 (converted)
T1 construct: expressed in transfected cells; host or cells: HEK-293 cells
T1 sequence (O43614 1-444): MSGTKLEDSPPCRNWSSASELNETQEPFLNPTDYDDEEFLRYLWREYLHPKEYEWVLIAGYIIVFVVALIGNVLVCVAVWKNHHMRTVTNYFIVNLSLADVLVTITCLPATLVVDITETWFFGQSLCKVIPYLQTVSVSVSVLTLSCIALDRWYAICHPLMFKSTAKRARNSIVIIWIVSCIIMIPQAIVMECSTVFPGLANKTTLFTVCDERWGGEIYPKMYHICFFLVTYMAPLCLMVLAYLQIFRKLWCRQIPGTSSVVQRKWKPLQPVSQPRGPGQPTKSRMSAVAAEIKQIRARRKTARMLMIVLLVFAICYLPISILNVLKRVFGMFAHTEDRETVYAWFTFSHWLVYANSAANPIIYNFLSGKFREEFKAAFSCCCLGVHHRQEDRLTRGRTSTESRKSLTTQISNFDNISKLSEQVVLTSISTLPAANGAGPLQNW
Procedure: (§1) Thus the plate was loaded with the calcium dye (Fluo-4NW/probenecid in HBSS, Hepes 20 mM, pH 7.4; Invitrogen) at 37° C. for 60 min. Afterward the temperature was equilibrated at 22° C. for 15 min and the [Ca2+]i measured directly on the plate by using a fluorescent plate reader (CeliLux Perkin Elmer).
(§2) Invention compounds were dissolved in DMSO, diluted in HBSS (DMSO, 0.3% final) and added to the wells. After 5 min CHO cells were activated with orexin-A, 3 nM while HEK-293 cells were activated with orexin-B, 10 nM. […] The antagonistic activity has been expressed as pKb (co-logarithm of the apparent dissociation constant calculated by using the modified Cheng Prusoff equation). The results are expressed as percent of control specific […] response ((measured specific response/control specific agonist response)×100) obtained in the presence of the test compounds.
(§3) The IC50 values (concentration causing a half-maximal inhibition of the control specific agonist response) were determinated by non-linear regression analysis of the concentration curves generated with mean replicate values using hill equation curve fitting. The IC50 values are obtained by the arithmetical mean of at least two experiments.

[2] = target: T2, human OX1 receptors (Homo sapiens, UniProt O43613); test: antagonistic activity against human OX1 receptor, [Ca2+]i fluorimetry in transfected CHO cells; format: cell-based; settings: CHO cells transfected with human recombinant OX1; activated with orexin-A 3 nM; pKb = co-logarithm of apparent dissociation constant (modified Cheng Prusoff)
T2 construct: expressed in transfected cells; host or cells: CHO cells
T2 sequence (O43613 1-425): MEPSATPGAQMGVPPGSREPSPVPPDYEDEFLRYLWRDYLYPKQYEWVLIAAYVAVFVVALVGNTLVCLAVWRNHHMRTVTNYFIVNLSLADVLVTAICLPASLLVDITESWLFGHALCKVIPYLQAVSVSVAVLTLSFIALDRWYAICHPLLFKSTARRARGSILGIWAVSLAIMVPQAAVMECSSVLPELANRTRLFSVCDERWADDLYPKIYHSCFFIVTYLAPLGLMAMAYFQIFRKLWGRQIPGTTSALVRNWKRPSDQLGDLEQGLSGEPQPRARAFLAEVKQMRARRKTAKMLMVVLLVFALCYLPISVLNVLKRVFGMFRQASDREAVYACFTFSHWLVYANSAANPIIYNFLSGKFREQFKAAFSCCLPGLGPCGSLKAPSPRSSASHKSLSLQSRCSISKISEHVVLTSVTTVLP
Procedure: as §1, §2, §3

Row | Kb [1] [nM] | Kb [2] [nM] | SMILES
1 | 200 | 2.51 | Cc1ccc(-n2nccn2)c(C(=O)N2CCC(F)(F)CC2CNc2nc(C)cc(C)n2)c1 (single isomer, unassigned; isomer a) [Compound 4, (2-(((4,6-dimethylpyrimidin-2-yl)amino)methyl)-4,4-difluoropiperidin-1-yl)(5-methyl-2-(2H-1,2,3-triazol-2-yl)phenyl)methanone (isomer A)]
2 | 10000 | 3.16 | Cc1ccc(-c2ccccc2)c(C(=O)N2CCC(F)(F)CC2CNc2cnc(C(F)(F)F)cn2)n1 (racemic) [Compound 43]
3 | 1000 | 31.6 | CN(C)c1ccc(-c2ccccc2)c(C(=O)N2CCC(F)(F)CC2CNc2ccc(Cl)cn2)c1 (racemic) [Compound 18, (RS)(2-(((5-chloropyridin-2-yl)amino)methyl)-4,4-difluoropiperidin-1-yl)(4-(dimethylamino)-[1,1′-biphenyl]-2-yl)methanone]
4 | 200 | 3.98 | Cc1ccc(-c2ccccc2)c(C(=O)N2CCC(F)(F)CC2CNc2ncc(C(F)(F)F)cc2F)n1 (racemic) [Compound 44, (RS)(4,4-difluoro-2-(((3-fluoro-5-(trifluoromethyl)pyridin-2-yl)amino)methyl)piperidin-1-yl)(6-methyl-3-phenylpyridin-2-yl)methanone]
5 | 10000 | 6.31 | O=C(c1ncccc1-c1ccccc1)N1CCC(F)(F)CC1CNc1ccc(C(F)(F)F)cn1 (racemic) [Compound 51, (RS)(4,4-difluoro-2-((5-(trifluoromethylpyridin-2-yl)amino)methyl)piperidin-1-yl)(3-phenylpyridin-2-yl)methanone]
6 | 10000 | 1 | O=C(c1nccc2ccccc12)N1CCC(F)(F)CC1CNc1ccc(Cl)cn1 (single isomer, unassigned; isomer b) [Compound 24, (2-(((5-chloropyridin-2-yl)amino)methyl)-4,4-difluoropiperidin-1-yl)(isoquinolin-1-yl)methanone (isomer B)]
7 | 316 | 0.794 | Cc1ccc(-c2ncccn2)c(C(=O)N2CCC(F)(F)CC2CNc2ccc(C(F)(F)F)cn2)n1 (single isomer, unassigned; isomer a) [Compound 20, (4,4-difluoro-2-(((5-(trifluoromethyl)pyridin-2-yl)amino)methyl)piperidin-1-yl)(6-methyl-3-(pyrimidin-2-yl)pyridin-2-yl)methanone (isomer A)]
8 | 10000 | 3.98 | Cc1ccc(-c2ncccn2)c(C(=O)N2CCC(F)(F)CC2CNc2ncc(C(F)(F)F)cc2F)n1 (racemic) [Compound 31, (RS)(4,4-difluoro-2-(((3-fluoro-5-(trifluoromethyl)pyridin-2-yl)amino)methyl)piperidin-1-yl)(6-methyl-3-(pyrimidin-2-yl)pyridin-2-yl)methanone]
9 | 126 | 3.16 | Cc1ccc(-c2ccccc2)c(C(=O)N2CCC(F)(F)CC2CNc2ccc(C(F)(F)F)cn2)n1 (single isomer, unassigned; isomer b) [Compound 38, (4,4-difluoro-2-(((5-(trifluoromethyl)pyridin-2-yl)amino)methyl)piperidin-1-yl)(6-methyl-3-phenylpyridin-2-yl)methanone (isomer B)]
10 | 10000 | 0.794 | O=C(c1cccc2cccnc12)N1CCC(F)(F)CC1CNc1ccc(Cl)cn1 (racemic) [Compound 25, (RS)(2-(((5-chloropyridin-2-yl)amino)methyl)-4,4-difluoropiperidin-1-yl)(quinolin-8-yl)methanone]
11 | 10000 | 0.631 | Cc1ccc(-c2ncccn2)c(C(=O)N2CCC(F)(F)CC2CNc2ccc(Cl)cn2)n1 (single isomer, unassigned; isomer a) [Compound 16, (2-(((5-chloropyridin-2-yl)amino)methyl)-4,4-difluoropiperidin-1-yl)(6-methyl-3-(pyrimidin-2-yl)pyridin-2-yl)methanone (isomer A)]
12 | 10000 | 1.58 | N#Cc1ccc(-c2ncccn2)c(C(=O)N2CCC(F)(F)CC2CNc2ccc(Cl)cn2)c1 (racemic) [Compound 27, (RS)3-(2-(((5-chloropyridin-2-yl)amino)methyl)-4,4-difluoropiperidin-1-carbonyl)-4-(pyrimidin-2-yl)benzonitrile]
13 | 10000 | 3.98 | Cc1ccc(OCC2CC2)c(C(=O)N2CCC(F)(F)CC2CNc2ccc(C(F)(F)F)cn2)n1 (racemic) [Compound 45, (RS)(3-(cyclopropylmethoxy)-6-methylpyridin-2-yl)(4,4-difluoro-2-(((5-(trifluoromethyl)pyridin-2-yl)amino)methyl)piperidin-1-yl)methanone]
14 | 10000 | 12.6 | Cc1ccc(OCc2ccccc2)c(C(=O)N2CCC(F)(F)CC2CNc2ccc(C(F)(F)F)cn2)n1 (racemic) [Compound 47, (RS)(3-(benzyloxy)-6-methylpyridin-2-yl)(4,4-difluoro-2-(((5-(trifluoromethyl)pyridin-2-yl)amino)methyl)piperidin-1-yl)methanone]
15 | 10000 | 31.6 | O=C(c1nc(C(F)(F)F)ccc1-c1ncccn1)N1CCC(F)(F)CC1CNc1ccc(C(F)(F)F)cn1 (racemic) [Compound 39, (RS)(4,4-difluoro-2-(((5-(trifluoromethyl)pyridin-2-yl)amino)methyl)piperidin-1-yl)(3-(pyrimidin-2-yl)-6-(trifluoromethyl)pyridin-2-yl)methanone]
16 | 10000 | 2.51 | Cc1ccc(-c2ncccn2)c(C(=O)N2CCC(F)(F)CC2CNc2ncc(C(F)(F)F)cc2F)n1 (single isomer, unassigned; isomer a) [Compound 32, (4,4-difluoro-2-(((3-fluoro-5-(trifluoromethyl)pyridin-2-yl)amino)methyl)piperidin-1-yl)(6-methyl-3-(pyrimidin-2-yl)pyridin-2-yl)methanone (isomer A)]
17 | 10000 | 15.8 | Cc1ccc(-c2ccccn2)c(C(=O)N2CCC(F)(F)CC2CNc2ccc(C(F)(F)F)cn2)n1 (racemic) [Compound 53, (RS)(4,4-difluoro-2-(((5-(trifluoromethyl)pyridin-2-yl)amino)methyl)piperidin-1-yl)(6′-methyl-[2,3′-bipyridin]-2′-yl)methanone]

Reference: patent US9493438B2, “4,4-difluoro-piperidine-compounds” (ROTTAPHARM BIOTECH S.R.L., priority 2012, dated 2016)
